Results taken from patent publication US10294202B2, “Pyrrolidinones as herbicides” (FMC Corporation, priority 2013, dated 2019).

Tests used:
giant foxtail = test: Test A pre-/postemergence herbicide test; format: in vivo, Setaria faberii
Procedure, shortened: (§1)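 Visual 0–100 ratings (100 = complete control) made about 10 days after treatment, greenhouse-held plants compared with untreated controls. Treatments: postemergence sprays on one- to two-leaf plants (2–10 cm tall) and preemergence directed soil sprays after planting in loam–sand, chemicals formulated in non-phytotoxic solvent containing surfactant.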

crabgrass, large = test: Test C pre-/postemergence herbicide test; format: in vivo, Digitaria sanguinalis
Procedure, shortened: (§2)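 Greenhouse plants scored visually against untreated controls 13–15 days after treatment, 0 = no effect, 100 = complete control. Test chemicals in a non-phytotoxic solvent with surfactant were applied either to soil (loam/sand) at planting or to foliage of 1- to 4-leaf plants, 2–18 cm tall.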

pigweed = test: Test A pre-/postemergence herbicide test; format: in vivo, Amaranthus retroflexus
Procedure, shortened: as §1

ryegrass, Italian = test: Test C pre-/postemergence herbicide test; format: in vivo, Lolium multiflorum
Procedure, shortened: as §2

nutsedge, yellow = test: Test C pre-/postemergence herbicide test; format: in vivo, Cyperus esculentus
Procedure, shortened: as §2

foxtail, giant = test: Test C pre-/postemergence herbicide test; format: in vivo, Setaria faberii
Procedure, shortened: as §2

johnsongrass = test: Test C pre-/postemergence herbicide test; format: in vivo, Sorghum halepense
Procedure, shortened: as §2

blackgrass = test: Test C pre-/postemergence herbicide test; format: in vivo, Alopecurus myosuroides
Procedure, shortened: as §2

ragweed = test: Test C pre-/postemergence herbicide test; format: in vivo, Ambrosia elatior
Procedure, shortened: as §2

wheat = test: Test A pre-/postemergence herbicide test; format: in vivo, Triticum aestivum
Procedure, shortened: as §1

sedge, umbrella = test: Test B flooded paddy test; format: in vivo, Cyperus difformis; details: Flood, scale of 0 to 100 where 0 is no effect and 100 is complete control
Procedure, shortened: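 Plants were grown to the 2-leaf stage, then pots were flooded to 3 cm above the soil and compound was applied directly into the paddy water, with that depth held throughout. After 13 to 15 days in a greenhouse, injury was rated visually against untreated controls on a 0 to 100 scale (100 = complete control).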

[1] = Postemergence, 1000 g ai/ha, 0 to 100 scale (0 no effect, 100 complete control)
[2] = preemergence, 1000 g ai/ha, 0 to 100 scale
[3] = Postemergence, 31 g ai/ha, scale 0 (no effect) to 100 (complete control)
[4] = Postemergence, 62 g ai/ha, scale 0 to 100 (0 no effect, 100 complete control)
[5] = Postemergence, 125 g ai/ha, scale 0 to 100 (0 no effect, 100 complete control)
[6] = Postemergence, 250 g ai/ha, scale 0 to 100 (0 no effect, 100 complete control)
[7] = 125 g ai/ha, visual rating, 0 to 100 scale, 0 no effect, 100 complete control, approximately 10 days, preemergence
[8] = Postemergence, 125 g ai/ha, 0 to 100 scale, 0 is no effect, 100 is complete control
[9] = preemergence, 500 g ai/ha, 0 to 100 scale, 0 is no effect and 100 is complete control
[10] = Postemergence, 31 g ai/ha, scale 0 to 100 (0 no effect, 100 complete control)
[11] = Postemergence, 62 g ai/ha, scale 0 (no effect) to 100 (complete control)
[12] = Preemergence, 31 g ai/ha, scale 0 to 100, 0 is no effect and 100 is complete control
[13] = Preemergence, 62 g ai/ha, scale 0 to 100 (0 no effect, 100 complete control)
[14] = Preemergence, 125 g ai/ha, scale 0 to 100 (0 no effect, 100 complete control)

SMILES: Cc1c(F)cccc1NC(=O)C1C(=O)NCC1c1ccc(F)c(F)c1 (racemic) [Compound 106]
- Plant response rating, Foxtail, Giant (giant foxtail; [1]): 90
- Plant response rating, Foxtail, Giant (giant foxtail; [2]): 90
- Plant response rating, Crabgrass, Large (crabgrass, large; [3]): 10
- Plant response rating, Crabgrass, Large (crabgrass, large; [4]): 10
- Plant response rating, Crabgrass, Large (crabgrass, large; [5]): 25
- Plant response rating, Crabgrass, Large (crabgrass, large; [6]): 60
- Plant response rating, Pigweed (pigweed; [1]): 0
- Plant response rating, Pigweed (pigweed; [2]): 0
- Plant response rating, Ryegrass, Italian (ryegrass, Italian; [3]): 0
- Plant response rating, Ryegrass, Italian (ryegrass, Italian; [4]): 0
- Plant response rating, Ryegrass, Italian (ryegrass, Italian; [5]): 0
- Plant response rating, Ryegrass, Italian (ryegrass, Italian; [6]): 5
- Plant response rating, Nutsedge, Yellow (nutsedge, yellow; [3]): 0
- Plant response rating, Nutsedge, Yellow (nutsedge, yellow; [4]): 0
- Plant response rating, Nutsedge, Yellow (nutsedge, yellow; [5]): 0
- Plant response rating, Nutsedge, Yellow (nutsedge, yellow; [6]): 0
- Plant response rating, Foxtail, Giant (foxtail, giant; [3]): 50
- Plant response rating, Foxtail, Giant (foxtail, giant; [4]): 35
- Plant response rating, Foxtail, Giant (foxtail, giant; [5]): 45
- Plant response rating, Foxtail, Giant (foxtail, giant; [6]): 50
- Plant response rating, Johnsongrass (johnsongrass; [3]): 0
- Plant response rating, Johnsongrass (johnsongrass; [4]): 0
- Plant response rating, Johnsongrass (johnsongrass; [5]): 0
- Plant response rating, Johnsongrass (johnsongrass; [6]): 0
- Plant response rating, Blackgrass (blackgrass; [3]): 0
- Plant response rating, Blackgrass (blackgrass; [4]): 0
- Plant response rating, Blackgrass (blackgrass; [5]): 0
- Plant response rating, Blackgrass (blackgrass; [6]): 0
- Plant response rating, Ragweed (ragweed; [3]): 25
- Plant response rating, Ragweed (ragweed; [4]): 0
- Plant response rating, Ragweed (ragweed; [5]): 0
- Plant response rating, Ragweed (ragweed; [6]): 5
- Plant response rating, Wheat (wheat; [1]): 30
- Plant response rating, Wheat (wheat; [2]): 50
- Plant response rating, Sedge, Umbrella (sedge, umbrella; 1000 g ai/ha): 0

SMILES: O=C1NCC(c2ccc(C(F)(F)F)cc2)C1C(=O)Nc1cccc(F)c1F (racemic) [Compound 202]
- Plant response rating, Foxtail, Giant (giant foxtail; [7]): 90
- Plant response rating, Foxtail, Giant (giant foxtail; [8]): 90
- Foxtail, Giant plant response rating (0 to 100 scale, 0 is no effect, 100 is complete control) (giant foxtail; Postemergence, 500 g ai/ha): 90
- Plant response rating, Foxtail, Giant (giant foxtail; [9]): 90
- Plant response rating, Crabgrass, Large (crabgrass, large; [10]): 30
- Plant response rating, Crabgrass, Large (crabgrass, large; [11]): 50
- Plant response rating, Crabgrass, Large (crabgrass, large; [5]): 60
- Plant response rating, Crabgrass, Large (crabgrass, large; [6]): 75
- Crabgrass, Large plant response rating (crabgrass, large; [12]): 90
- Crabgrass, Large plant response rating (crabgrass, large; [13]): 95
- Plant response rating, Crabgrass, Large (crabgrass, large; [14]): 98
- Plant response rating (scale of 0 to 100), Crabgrass, Large (crabgrass, large; Preemergence, 250 g ai/ha): 98
- Plant response rating, Pigweed (pigweed; [7]): 60
- Plant response rating, Pigweed (pigweed; [8]): 70
- Pigweed plant response rating (0 to 100 scale, 0 is no effect, 100 is complete control) (pigweed; Postemergence, 500 g ai/ha): 80
- Plant response rating, Pigweed (pigweed; [9]): 70
- Plant response rating, Ryegrass, Italian (ryegrass, Italian; [10]): 0
- Plant response rating, Ryegrass, Italian (ryegrass, Italian; [11]): 0
- Plant response rating, Ryegrass, Italian (ryegrass, Italian; [5]): 5
- Plant response rating, Ryegrass, Italian (ryegrass, Italian; [6]): 35
- Ryegrass, Italian plant response rating (ryegrass, Italian; [12]): 0
- Ryegrass, Italian plant response rating (ryegrass, Italian; [13]): 30
- Plant response rating, Ryegrass, Italian (ryegrass, Italian; [14]): 30
- Plant response rating (scale of 0 to 100), Ryegrass, Italian (ryegrass, Italian; Preemergence, 250 g ai/ha): 5
- Plant response rating, Nutsedge, Yellow (nutsedge, yellow; [10]): 0
- Plant response rating, Nutsedge, Yellow (nutsedge, yellow; [11]): 0
- Plant response rating, Nutsedge, Yellow (nutsedge, yellow; [5]): 0
- Plant response rating, Nutsedge, Yellow (nutsedge, yellow; [6]): 0
- Nutsedge, Yellow plant response rating (nutsedge, yellow; [12]): 0
- Nutsedge, Yellow plant response rating (nutsedge, yellow; [13]): 0
- Plant response rating, Nutsedge, Yellow (nutsedge, yellow; [14]): 0
- Plant response rating (scale of 0 to 100), Nutsedge, Yellow (nutsedge, yellow; Preemergence, 250 g ai/ha): 0
- Plant response rating, Foxtail, Giant (foxtail, giant; [10]): 5
- Plant response rating, Foxtail, Giant (foxtail, giant; [11]): 25
- Plant response rating, Foxtail, Giant (foxtail, giant; [5]): 70
- Plant response rating, Foxtail, Giant (foxtail, giant; [6]): 85
- Foxtail, Giant plant response rating (foxtail, giant; [12]): 90
- Foxtail, Giant plant response rating (foxtail, giant; [13]): 90
- Plant response rating, Foxtail, Giant (foxtail, giant; [14]): 95
- Plant response rating (scale of 0 to 100), Foxtail, Giant (foxtail, giant; Preemergence, 250 g ai/ha): 98
- Plant response rating, Johnsongrass (johnsongrass; [10]): 0
- Plant response rating, Johnsongrass (johnsongrass; [11]): 20
- Plant response rating, Johnsongrass (johnsongrass; [5]): 25
- Plant response rating, Johnsongrass (johnsongrass; [6]): 25
- Johnsongrass plant response rating (johnsongrass; [12]): 10
- Johnsongrass plant response rating (johnsongrass; [13]): 60
- Plant response rating, Johnsongrass (johnsongrass; [14]): 70
- Plant response rating (scale of 0 to 100), Johnsongrass (johnsongrass; Preemergence, 250 g ai/ha): 85
- Plant response rating, Blackgrass (blackgrass; [10]): 0
- Plant response rating, Blackgrass (blackgrass; [11]): 0
- Plant response rating, Blackgrass (blackgrass; [5]): 5
- Plant response rating, Blackgrass (blackgrass; [6]): 10
- Blackgrass plant response rating (blackgrass; [12]): 70
- Plant response rating, Blackgrass (blackgrass; Preemergence, 62 g ai/ha, scale 0 to 100): 80
- Plant response rating, Blackgrass (blackgrass; [14]): 90
- Plant response rating (scale of 0 to 100), Blackgrass (blackgrass; Preemergence, 250 g ai/ha): 90
- Plant response rating, Ragweed (ragweed; [10]): 70
- Plant response rating, Ragweed (ragweed; [11]): 75
- Plant response rating, Ragweed (ragweed; [5]): 80
- Plant response rating, Ragweed (ragweed; [6]): 85
- Ragweed plant response rating (ragweed; [12]): 65
- Ragweed plant response rating (ragweed; [13]): 85
- Plant response rating, Ragweed (ragweed; [14]): 85
- Plant response rating (scale of 0 to 100), Ragweed (ragweed; Preemergence, 250 g ai/ha): 100
- Plant response rating, Wheat (wheat; [8]): 40
- Wheat plant response rating (0 to 100 scale, 0 is no effect, 100 is complete control) (wheat; Postemergence, 500 g ai/ha): 50
- Plant response rating, Sedge, Umbrella (sedge, umbrella; 500 g ai/ha): 0
